In experiment [1] the target is BCL-2 binding to BAK peptide (Homo sapiens, UniProt P10415). Nature of the experiment: BCL2 SPR solution inhibition assay, BAK peptide surface (Biacore A100). The following applies: read-out: BCL2_SPR IC50 BAK. An excerpt: (§1) 33The present method includes utility of a Surface plasmon resonance (SPR)-based biosensor (Bia34core™′ GE Healthcare, Uppsala, Sweden) to characterize BCL-2 inhibitors. 35
(§2) 36Biacore™ utilizes the phenomenon of surface plasmon resonance (SPR) to detect and measure 37binding interactions. In a typical Biacore experiment, one of the interacting molecules (ligand) is i38mmobilized on a flexible dextran matrix while the interacting partner (analyte) is allowed to fl39ow across that surface. A binding interaction results in an increase in mass on the sensor surface 40and a corresponding direct change in the refractive index of the medium in the vicinity of the 41sensor surface. Changes in refractive index or signal are recorded in resonance units (R.U.) Signal 42changes due to association and dissociation of complexes are monitored in a non-invasive manne43r, continuously and in real-time, the results of which are reported in the form of a sensorgram.44
(§3) The SPR assay is con45figured to examine solution inhibition of BCL-2 binding to peptide derivatized sensor surfa46ces to generate IC50 values as a measure of inhibitor potency.
(§4) Biacore™ A100 (GE Healthcare, Uppsala, Sweden) was used to conduct all experiments reported herein. Sensor surface preparation and all interaction analyses experiments were performed at 25° C. Reagents were purchased from GE Healthcare. Running buffer containing 10 mM Hepes, pH7.4, 150 mM sodium chloride, 1.25 mM Dithiothreitol, 3% Dimethyl sulfoxide and 0.05% polysorbate 20 were utilized throughout all analyses.
(§5) Biotinylated BAK, BAD and NOXA peptides were diluted to 10 nM in running buffer and captured onto a sensor surface pre-derivatized with streptavidin (sensor chip SA) to peptide surface densities in the range 50-100 R.U. Peptide captured surfaces were blocked with 500 μM PEO2-Biotin.
(§6) Interaction analyses were performed by first equilibrating each sample within a 6 point three fold compound dilution series in the range 16 μM to […] with 56 nM BCL-2 for one hour during instrument start-up procedures. Protein compound mixtures were then injected over each peptide surface in parallel for 60 seconds at a flow-rate of 30 μL/min. 56 nM BCL-2 control samples were also prepared and run at regular intervals during the assay. Surface regeneration was performed at the end of each analysis cycle by two 30 second injections of 10 mM Glycine, pH 2.5, 1M Sodium Chloride, 0.05% polysorbate 20. Samples and control compound samples were run in duplicate and controls are also run at regular intervals during the assay to monitor surface and assay performance.
(§7) Data analyses are carried out using Biacore™ A100 evaluation software v1.1 to validate assay quality. Binding level report points were used relative to BCL-2 control samples to calculate % inhibition values for each compound protein mixture. […] The range of data shown in table 1 represents the high and low IC50 values obtained from multiple experiments.
Background: SPR reads the build-up and loss of mass on a sensor chip optically.

In experiment [2] the target is BCL-2 binding to BAD peptide (Homo sapiens, UniProt P10415). As to the kind of experiment: BCL2 SPR solution inhibition assay, BAD peptide surface (Biacore A100). The note with it: read-out: BCL2_SPR IC50 BAD.
BCL-2 binding to BAD peptide, sequence (P10415 whole entry): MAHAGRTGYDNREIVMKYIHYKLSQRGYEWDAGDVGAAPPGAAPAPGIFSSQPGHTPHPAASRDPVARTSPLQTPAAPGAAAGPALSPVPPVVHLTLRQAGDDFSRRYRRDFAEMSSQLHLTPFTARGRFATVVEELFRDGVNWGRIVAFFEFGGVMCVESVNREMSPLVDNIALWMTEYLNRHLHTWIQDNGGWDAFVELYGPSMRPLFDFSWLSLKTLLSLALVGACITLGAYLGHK
Description: as §1, §2, §3, §4, §5, §6, §7

BCL-2 binding to BAK peptide, sequence (P10415 whole entry): as above

Regarding `CCCCN(CCCC)C(=O)c1cc(C)n(-c2ccc(N3CCOCC3)cc2C(=O)N2Cc3ccccc3C[C@H]2CO)n1` [Example 1, (S)—N,N-dibutyl-1-(2-(3-(hydroxymethyl)-1,2,3,4-tetrahydroisoquinoline-2-carbonyl)-4-morpholinophenyl)-5-methyl-1H-pyrazole-3-carboxamide], the 50% inhibitory concentration (IC50) (in general, the point on the concentration scale where inhibition reaches its midpoint) in experiment [1] lay in the range of 725 to 860 nM; in experiment [2], 1400 to 1520 nM.
For `CCCCN(CCCC)C(=O)c1cc(C)n(-c2ccc(N3CCN(c4ccccc4)CC3=O)cc2C(=O)N2Cc3ccccc3C[C@H]2CO)n1` [Example 2, (S)—N,N-dibutyl-1-(2-(3-(hydroxymethyl)-1,2,3,4-tetrahydroisoquinoline-2-carbonyl)-4-(2-oxo-4-phenylpiperazin-1-yl)phenyl)-5-methyl-1H-pyrazole-3-carboxamide], the IC50 was in the range of 3150 to 3300 nM in experiment [1] and 4360 to 4620 nM in experiment [2].
Consider `CCCCN(CCCC)C(=O)c1cc(C)n(-c2ccc(N3CCN(Cc4ccc(Cl)cc4)C(=O)C3)cc2C(=O)N2Cc3ccccc3C[C@H]2CO)n1` [Example 3, (S)—N,N-dibutyl-1-(4-(4-(4-chlorobenzyl)-3-oxopiperazin-1-yl)-2-(3-(hydroxymethyl)-1,2,3,4-tetrahydroisoquinoline-2-carbonyl)phenyl)-5-methyl-1H-pyrazole-3-carboxamide], for which the values for the IC50 in experiment [1] and in experiment [2] were 512 to 515 nM and 474 to 506 nM, respectively.
Turning to `CCCCN(CCCC)C(=O)c1cc(C)n(-c2ccc(-c3cccc(C(=O)O)c3)cc2C(=O)N2Cc3ccccc3C[C@H]2CO)n1` [Example 4, (S)-4′-(3-(dibutylcarbamoyl)-5-methyl-1H-pyrazol-1-yl)-3′-(3-(hydroxymethyl)-1,2,3,4-tetrahydroisoquinoline-2-carbonyl)-[1,1′-biphenyl]-3-carboxylic acid], the IC50 in experiment [1] was 86.6 to 91 nM; in experiment [2], 110 to 119 nM.
On to `CCCCN(CCCC)C(=O)c1nn(-c2ccc(-c3cccnc3)cc2C(=O)N2Cc3ccccc3C[C@H]2CO)c(C)c1Cl` [Example 5], for which the 50% inhibitory concentration (IC50) in experiment [1] was in the range of 253 to 262 nM; in experiment [2] it was 218 to 236 nM.
Regarding `CCCCN(CCCC)C(=O)c1nn(-c2ccc(-c3ccc(N)nc3)cc2C(=O)N2Cc3ccccc3C[C@H]2CO)c(C)c1Cl` [Example 6], the figures for the IC50 in experiment [1] and in experiment [2] were 210 to 252 nM and 231 to 288 nM, respectively.
In the case of `CCCCN(CCCC)C(=O)c1nn(-c2ccc(-c3cc[nH]n3)cc2C(=O)N2Cc3ccccc3C[C@H]2CO)c(C)c1Cl` [Example 7], the values for the half-inhibitory concentration (IC50) in experiment [1] and in experiment [2] were 609 to 613 nM and 739 to 770 nM, respectively.
Turning to `CCCCN(CCCC)C(=O)c1nn(-c2ccc(-c3ccc(N(C)C)nc3)cc2C(=O)N2Cc3ccccc3C[C@H]2CO)c(C)c1Cl` [Example 8], the values for the concentration for half-maximal inhibition (IC50) in experiment [1] and in experiment [2] were 767 to 786 nM and 745 to 750 nM, respectively.
`CCCCN(CCCC)C(=O)c1nn(-c2ccc(-c3ccncc3OC)cc2C(=O)N2Cc3ccccc3C[C@H]2CO)c(C)c1Cl` [Example 9]: the IC50 lay in the range of 703 to 902 nM in experiment [1] and 773 to 905 nM in experiment [2].
With `CCCCN(CCCC)C(=O)c1nn(-c2ccc(-c3ccc(OC)nc3)cc2C(=O)N2Cc3ccccc3C[C@H]2CO)c(C)c1Cl` [Example 10], the concentration for half-maximal inhibition (IC50) was 790 to 906 nM in experiment [1] and 843 to 958 nM in experiment [2].
On to `CCCCN(CCCC)C(=O)c1nn(-c2ccc(-c3ccccc3)cc2C(=O)N2Cc3ccccc3C[C@H]2CO)c(C)c1Cl` [Example 11], for which the IC50 lay in the range of 1400 to 1490 nM in experiment [1] and 1480 to 1580 nM in experiment [2].
For `CCCCN(CCCC)C(=O)c1nn(-c2ccc(-c3cnn(Cc4ccccc4)c3)cc2C(=O)N2Cc3ccccc3C[C@H]2CO)c(C)c1Cl` [Example 12], the IC50 is 103 to 115 nM in experiment [1] and 127 to 148 nM in experiment [2].
With `CCCCN(CCCC)C(=O)c1cc(C)n(-c2ccc(-c3ccc(C(=O)O)cc3)cc2C(=O)N2Cc3ccccc3C[C@H]2CO)n1` [Example 13], the half-inhibitory concentration (IC50) in experiment [1] lay within 105 to 129 nM; in experiment [2], 133 to 165 nM.
For `CCCCN(CCCC)C(=O)c1nn(-c2ccc(-c3cn[nH]c3)cc2C(=O)N2Cc3ccccc3C[C@H]2CO)c(C)c1Cl` [Example 14], the IC50 was 189 to 213 nM in experiment [1] and 277 to 315 nM in experiment [2].
Turning to `CCCCN(CCCC)C(=O)c1cc(C)n(-c2ccc(N3CCN(c4ccccc4)CC3)cc2C(=O)N2Cc3ccccc3C[C@H]2CO)n1` [Example 15], the IC50 lay within 552 to 713 nM in experiment [1] and 668 to 770 nM in experiment [2].
On the same counts, the results for `CCCCN(CCCC)C(=O)c1cc(C)n(-c2ccc(N3CCN(C(=O)OC(C)(C)C)CC3=O)cc2C(=O)N2Cc3ccccc3C[C@H]2CO)n1` [Example 16] are 1340 to 1450 nM and 2020 to 2210 nM.
As for `CCCCN(CCCC)C(=O)c1cc(C)n(-c2ccc(N3CCN(C)CC3)cc2C(=O)N2Cc3ccccc3C[C@H]2CO)n1` [Example 17], the figures for the IC50 in experiment [1] and in experiment [2] were 1570 to 1640 nM and 2640 to 3050 nM, respectively.
On to `CCCCN(CCCC)C(=O)c1cc(C)n(-c2ccc(N3CCCCC3)cc2C(=O)N2Cc3ccccc3C[C@H]2CO)n1` [Example 18], for which the IC50 lay within 1650 to 1930 nM in experiment [1] and 2360 to 2740 nM in experiment [2].
On to `CCCCN(CCCC)C(=O)c1cc(C)n(-c2ccc(N3CCOCC3=O)cc2C(=O)N2Cc3ccccc3C[C@H]2CO)n1` [Example 19], for which the IC50 in experiment [1] was 6060 to 6600 nM; in experiment [2] it was 11200 to 12200 nM.
For the compound `CCCCN(CCCC)C(=O)c1cc(C)n(-c2ccc(N3CCN(Cc4ccccc4)C(=O)C3)cc2C(=O)N2Cc3ccccc3C[C@H]2CO)n1` [Example 20], the IC50 was 119 to 137 nM in experiment [1] and 136 to 143 nM in experiment [2].
With `CCCCN(CCCC)C(=O)c1cc(C)n(-c2ccc(N3CCN(Cc4ccccc4Cl)C(=O)C3)cc2C(=O)N2Cc3ccccc3C[C@H]2CO)n1` [Example 21], the IC50 in experiment [1] was 179 to 190 nM; in experiment [2], 180 to 202 nM.
In the same order, the values of `CCCCN(CCCC)C(=O)c1cc(C)n(-c2ccc(N3CCN(Cc4ccccc4)CC3)cc2C(=O)N2Cc3ccccc3C[C@H]2CO)n1` [Example 22] are 220 to 272 nM and 202 to 231 nM.
As for `CCCCN(CCCC)C(=O)c1cc(C)n(-c2ccc(N3CCN(Cc4cccc(Cl)c4)C(=O)C3)cc2C(=O)N2Cc3ccccc3C[C@H]2CO)n1` [Example 23], the IC50 was 148 to 155 nM in experiment [1] and 162 nM in experiment [2].
Turning to `CCCCN(CCCC)C(=O)c1cc(C)n(-c2ccc(-c3ccccc3F)cc2C(=O)N2Cc3ccccc3C[C@H]2CO)n1` [Example 24], the results for the IC50 in experiment [1] and in experiment [2] were 3360 to 4630 nM and 3010 to 3410 nM, respectively.
As for `CCCCN(CCCC)C(=O)c1cc(C)n(-c2ccc(-c3ccc(C(=O)N4CCCC4)c(F)c3)cc2C(=O)N2Cc3ccccc3C[C@H]2CO)n1` [Example 25], the figures for the IC50 in experiment [1] and in experiment [2] were 159 to 171 nM and 223 to 224 nM, respectively.
With `CCCCN(CCCC)C(=O)c1cc(C)n(-c2ccc(-c3ccc(S(=O)(=O)N4CCCCC4)cc3)cc2C(=O)N2Cc3ccccc3C[C@H]2CO)n1` [Example 26], the half-maximal inhibitory concentration (IC50) in experiment [1] is 437 to 484 nM; in experiment [2], 584 to 672 nM.
In the same order, the values of `CCCCN(CCCC)C(=O)c1cc(C)n(-c2ccc(-c3cccc(Cl)c3)cc2C(=O)N2Cc3ccccc3C[C@H]2CO)n1` [Example 27] are 520 to 599 nM and 744 to 783 nM.
As for `CCCCN(CCCC)C(=O)c1cc(C)n(-c2ccc(-c3ccc(F)c(C)c3)cc2C(=O)N2Cc3ccccc3C[C@H]2CO)n1` [Example 28], the results for the 50% inhibitory concentration (IC50) in experiment [1] and in experiment [2] were 802 to 913 nM and 919 to 1070 nM, respectively.
`CCCCN(CCCC)C(=O)c1cc(C)n(-c2ccc(-c3ccc(OC)c(C)c3)cc2C(=O)N2Cc3ccccc3C[C@H]2CO)n1` [Example 29]: the IC50 in experiment [1] was 563 to 621 nM; in experiment [2], 767 to 820 nM.
On the same counts, the results for `CCCCN(CCCC)C(=O)c1cc(C)n(-c2ccc(-c3ccc(OC)c(Cl)c3)cc2C(=O)N2Cc3ccccc3C[C@H]2CO)n1` [Example 30] are 510 to 591 nM and 651 to 676 nM.
With `CCCCN(CCCC)C(=O)c1cc(C)n(-c2ccc(-c3cnc4ccccc4c3)cc2C(=O)N2Cc3ccccc3C[C@H]2CO)n1` [Example 31], the IC50 in experiment [1] lay in the range of 140 to 142 nM; in experiment [2], 177 to 178 nM.
On the same counts, the results for `CCCCN(CCCC)C(=O)c1cc(C)n(-c2ccc(-c3ccc(F)c(C#N)c3)cc2C(=O)N2Cc3ccccc3C[C@H]2CO)n1` [Example 32] are 359 to 375 nM and 410 to 465 nM.
On the same counts, the results for `CCCCN(CCCC)C(=O)c1cc(C)n(-c2ccc(-c3ccc(NC(C)=O)cc3)cc2C(=O)N2Cc3ccccc3C[C@H]2CO)n1` [Example 33] are 339 to 434 nM and 455 to 553 nM.

(Values after patent US20140350014A1, “COMPOUNDS FOR INHIBITING THE INTERACTION OF BCL2 WITH BINDING PARTNERS” (NOVARTIS AG, priority 2011, published 2014).)
